Patent publication US20180334447A1, “2,3,4,5-TETRAHYDROPYRIDIN-6-AMINE DERIVATIVES” (JANSSEN PHARMACEUTICA NV, priority 2015, published 2018)

Test system: Abetatotal in human neuroblastoma SKNBE2 cells
Assay: Cellular αLisa assay in SKNBE2 cells, Abetatotal
Assay type: cell-based
Conditions: Homo sapiens, SKNBE2, 18 h, SKNBE2 cells expressing hAPP695, incubated for 18 hours; read-out: Cellular αLisa assay in SKNBE2 cells Abetatotal pIC50 (converted)

SMILES | IC50 [nM]
CCS(=O)(=O)C1(C)CCC(CF)(c2cc(NC(=O)c3ccc(F)cn3)ccc2F)N=C1N (stereo not shown) [Compound 31] | 1.78
CC1(S(C)(=O)=O)CCC(CF)(c2cc(NC(=O)c3cnc(OC(F)F)cn3)ccc2F)N=C1N (stereo not shown) [Compound 32] | 0.309
CC1(S(C)(=O)=O)CCC(CF)(c2cc(NC(=O)c3cnc(OCC(F)(F)F)cn3)ccc2F)N=C1N (stereo not shown) [Compound 39] | 2.14

Biological target: T1, recombinant BACE2 protein (Homo sapiens, UniProt Q9Y5Z0)
T1 construct: recombinant BACE2 protein in a final concentration of 0.4 μg/ml
T1 sequence (Q9Y5Z0 63-518): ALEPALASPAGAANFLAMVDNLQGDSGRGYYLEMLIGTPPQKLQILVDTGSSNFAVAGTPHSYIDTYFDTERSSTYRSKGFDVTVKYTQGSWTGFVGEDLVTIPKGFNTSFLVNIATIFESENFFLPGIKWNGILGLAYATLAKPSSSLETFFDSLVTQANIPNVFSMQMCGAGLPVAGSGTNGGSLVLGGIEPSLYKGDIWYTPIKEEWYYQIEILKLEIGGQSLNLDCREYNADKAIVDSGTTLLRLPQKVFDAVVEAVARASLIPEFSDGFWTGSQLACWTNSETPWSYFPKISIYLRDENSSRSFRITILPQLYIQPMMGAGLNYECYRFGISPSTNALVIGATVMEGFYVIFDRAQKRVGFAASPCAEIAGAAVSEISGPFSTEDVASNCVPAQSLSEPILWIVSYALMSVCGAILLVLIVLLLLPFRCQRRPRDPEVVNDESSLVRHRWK
Assay: BACE2 biochemical FRET based assay
Conditions: BACE2, 450 minutes at room temperature, pH 5.0; read-out: Biochemical FRET based assay pIC50 (converted)
Text: (§1) This assay is a Fluorescence Resonance Energy Transfer Assay (FRET) based assay. The substrate for this assay contains the ‘Swedish’ Lys-Met/Asn-Leu mutation of the amyloid precursor protein (APP) beta-secretase cleavage site. This substrate also contains two fluorophores: (7-methoxycoumarin-4-yl) acetic acid (Mca) is a fluorescent donor with excitation wavelength at 320 nm and emission at 405 nm and 2,4-Dinitrophenyl (Dnp) is a proprietary quencher acceptor. […] Upon cleavage by the beta-secretase, the fluorophore Mca is separated from the quenching group Dnp, restoring the full fluorescence yield of the donor. The increase in fluorescence is linearly related to the rate of proteolysis.
Briefly in a 384-well format recombinant BACE2 protein in a final concentration of 0.4 μg/ml is incubated for 450 minutes at room temperature with 10 μM substrate in incubation buffer (50 mM Citrate buffer pH 5.0, 0.05% PEG, no DMSO) in the absence or presence of compound. Next the amount of proteolysis is directly measured by fluorescence measurement at T=0 and T=450 (excitation at 320 nm and emission at 405 nm). Results are expressed in RFU (Relative Fluorescence Units), as difference between T450 and T0.
(§2) A best-fit curve is fitted by a minimum sum of squares method to the plot of % Controlmin versus compound concentration. From this an IC50 value (inhibitory concentration causing 50% inhibition of activity) can be obtained.

SMILES | IC50 [nM]
COc1cnc(C(=O)Nc2ccc(F)c([C@]3(CF)CC[C@@](C)(S(C)(=O)=O)C(N)=N3)c2)cn1 [Compound 2] | 13.8
COc1cnc(C(=O)Nc2ccc(F)c([C@]3(C)CC[C@](C)(S(C)(=O)=O)C(N)=N3)c2)cn1 [Compound 9] | 513
CCS(=O)(=O)C1(C)CCC(CF)(c2cc(NC(=O)c3ccc(F)cn3)ccc2F)N=C1N (stereo not shown) [Compound 31] | 2.63
CC1(S(C)(=O)=O)CCC(CF)(c2cc(NC(=O)c3cnc(OC(F)F)cn3)ccc2F)N=C1N (stereo not shown) [Compound 32] | 11.5
CC1(S(C)(=O)=O)CCC(CF)(c2cc(NC(=O)c3cnc(OCC(F)(F)F)cn3)ccc2F)N=C1N (stereo not shown) [Compound 39] | 25.1

Test system: Abeta 1-37, Abeta 1-38, Abeta 1-40 and Abeta 1-42 in CSF
Assay: Pharmacology in the Beagle dog: beta-amyloid profile in cerebrospinal fluid (CSF) after a single dose
Assay type: in vivo
Conditions: Canis lupus familiaris, single dose 0.31 mg/kg, 8 h post dosing, read-out: % Decrease in Abeta 1-42 at 8 h post dosing compared to own baseline
Method: Test compounds were tested to evaluate the effect on the beta-amyloid profile in cerebrospinal fluid (CSF) of dogs after a single dose, in combination with pharmacokinetic (PK) follow up and limited safety evaluation.
For each of compound 20, 21, 22 or 41, four beagle dogs (2 males, 2 females) were dosed with vehicle (1 ml/kg of an aqueous solution of 20% cyclodextrin) and 12 beagle dogs (2 males and 2 females per dosage group) were dosed with test compounds as follows:
In the case of compounds 39, 33 and 31, two beagle dogs (1 male, 1 female) were dosed with vehicle (1 ml/kg of an aqueous solution of 20% cyclodextrin) and 4 beagle dogs (2 males and 2 females) were dosed with test compound […] (0.31 mg/kg in 0.31 mg/ml of an aqueous 20% cyclodextrin solution) on an empty stomach.
Eight hours after dosing the animals got access to their regular meal for 30 minutes. Blood was taken for PK follow up (0.5, 1, 2, 4, 8, 25 and 49 hours) and serum samples for biochemistry were taken before and at 8 and 25 h after dosing. The CSF samples were used for measurement of Abeta 1-37, Abeta 1-38, Abeta 1-40 and Abeta 1-42.

SMILES | inhibition in vivo at 0.31 mg/kg [%]
COc1cnc(C(=O)Nc2ccc(F)c([C@]3(CF)CC[C@@](C)(S(C)(=O)=O)C(N)=N3)c2)cn1 [Compound 2] | 56
CCS(=O)(=O)C1(C)CCC(CF)(c2cc(NC(=O)c3ccc(F)cn3)ccc2F)N=C1N (stereo not shown) [Compound 31] | 31
CC1(S(C)(=O)=O)CCC(CF)(c2cc(NC(=O)c3cnc(OC(F)F)cn3)ccc2F)N=C1N (stereo not shown) [Compound 32] | 76
CC1(S(C)(=O)=O)CCC(CF)(c2cc(NC(=O)c3cnc(OCC(F)(F)F)cn3)ccc2F)N=C1N (stereo not shown) [Compound 39] | 53

Same assay, conditions: single dose 0.31 mg/kg, 25 h post dosing (b)

SMILES | % Decrease in Abeta 1-42 at 24 h^(a) or 25 h^(b) post dosing compared to own baseline
CC1(S(C)(=O)=O)CCC(CF)(c2cc(NC(=O)c3cnc(OCC(F)(F)F)cn3)ccc2F)N=C1N (stereo not shown) [Compound 39] | 44^(b) %

Biological target: T2, recombinant BACE1 protein (Homo sapiens, UniProt P56817)
T2 construct: recombinant BACE1 protein in a final concentration of 1 μg/ml
T2 sequence (P56817 46-501): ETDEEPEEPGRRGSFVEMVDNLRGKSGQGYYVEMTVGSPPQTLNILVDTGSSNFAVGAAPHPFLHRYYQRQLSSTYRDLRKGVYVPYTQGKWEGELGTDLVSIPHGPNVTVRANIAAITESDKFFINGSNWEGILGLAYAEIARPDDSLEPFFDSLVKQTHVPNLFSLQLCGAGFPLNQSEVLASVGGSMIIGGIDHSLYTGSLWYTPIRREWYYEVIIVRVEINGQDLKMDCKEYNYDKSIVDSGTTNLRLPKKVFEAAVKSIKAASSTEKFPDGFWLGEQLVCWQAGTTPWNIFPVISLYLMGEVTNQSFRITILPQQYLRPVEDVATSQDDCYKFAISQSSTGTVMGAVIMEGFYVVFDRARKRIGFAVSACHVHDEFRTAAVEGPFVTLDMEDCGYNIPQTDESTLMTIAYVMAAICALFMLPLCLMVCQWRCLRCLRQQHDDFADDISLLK
Assay: BACE1 biochemical FRET based assay - Method 1
Conditions: BACE1, 120 minutes at room temperature, pH 5.0; read-out: Biochemical FRET based assay - Method 1 pIC50 (converted)
Text: as §1, with “this assay is an APP derived 13 amino acids peptide that contains the” for “this assay contains the”, “cleavage by BACE1, the fluorophore” for “cleavage by the beta-secretase, the fluorophore”
Briefly in a 384-well format recombinant BACE1 protein in a final concentration of 1 μg/ml is incubated for 120 minutes at room temperature with 10 μm substrate in incubation buffer (40 mM Citrate buffer pH 5.0, 0.04% PEG, 4% DMSO) in the absence or presence of compound. Next the amount of proteolysis is directly measured by fluorescence measurement at T=0 and T=120 (excitation at 320 nm and emission at 405 nm). Results are expressed in RFU (Relative Fluorescence Units), as difference between T120 and T0.
as §2

SMILES | IC50 [nM]
COc1cnc(C(=O)Nc2ccc(F)c([C@]3(CF)CC[C@@](C)(S(C)(=O)=O)C(N)=N3)c2)cn1 [Compound 2] | 2.29
COc1cnc(C(=O)Nc2ccc(F)c([C@]3(C)CC[C@](C)(S(C)(=O)=O)C(N)=N3)c2)cn1 [Compound 9] | 77.6
CCS(=O)(=O)C1(C)CCC(CF)(c2cc(NC(=O)c3ccc(F)cn3)ccc2F)N=C1N (stereo not shown) [Compound 31] | 1.7
CC1(S(C)(=O)=O)CCC(CF)(c2cc(NC(=O)c3cnc(OC(F)F)cn3)ccc2F)N=C1N (stereo not shown) [Compound 32] | 1.05
CC1(S(C)(=O)=O)CCC(CF)(c2cc(NC(=O)c3cnc(OCC(F)(F)F)cn3)ccc2F)N=C1N (stereo not shown) [Compound 39] | 1.29

Test system: not given
Assay: not given
Conditions: not given

SMILES | melting point [°C]
COc1cnc(C(=O)Nc2ccc(F)c([C@]3(CF)CC[C@@](C)(S(C)(=O)=O)C(N)=N3)c2)cn1 [Compound 2] | 122.96
COc1cnc(C(=O)Nc2ccc(F)c([C@]3(C)CC[C@](C)(S(C)(=O)=O)C(N)=N3)c2)cn1 [Compound 9] | 214.97

Test system: Abeta 1-42 produced and secreted into the medium of human neuroblastoma SKNBE2 cells
Assay: Cellular αLisa assay in SKNBE2 cells, Abeta 42
Assay type: cell-based
Conditions: Homo sapiens, SKNBE2, 18 h, SKNBE2 cells expressing hAPP695, incubated for 18 hours; read-out: Cellular αLisa assay in SKNBE2 cells Abeta 42 pIC50 (converted)
Method: In two αLisa assays the levels of Abeta 1-42 produced and secreted into the medium of human neuroblastoma SKNBE2 cells are quantified. The assay is based on the human neuroblastoma SKNBE2 expressing the wild type Amyloid Precursor Protein (hAPP695). The compounds are diluted and added to these cells, incubated for 18 hours and then measurements of Abeta 1-42 are taken. Abeta 1-42 are measured by sandwich αLisa. αLisa is a sandwich assay using biotinylated antibody AbN/25 attached to streptavidin coated beads and antibody cAb42/26 conjugated acceptor beads for the detection of Abeta 1-42 respectively. In the presence of Abeta 1-42, the beads come into close proximity. The excitation of the donor beads provokes the release of singlet oxygen molecules that trigger a cascade of energy transfer in the acceptor beads, resulting in light emission. Light emission is measured after 1 hour incubation (excitation at […] and emission at 615 nm).
as §2

SMILES | IC50 [nM]
COc1cnc(C(=O)Nc2ccc(F)c([C@]3(CF)CC[C@@](C)(S(C)(=O)=O)C(N)=N3)c2)cn1 [Compound 2] | 1.48
COc1cnc(C(=O)Nc2ccc(F)c([C@]3(C)CC[C@](C)(S(C)(=O)=O)C(N)=N3)c2)cn1 [Compound 9] | 28.8
CCS(=O)(=O)C1(C)CCC(CF)(c2cc(NC(=O)c3ccc(F)cn3)ccc2F)N=C1N (stereo not shown) [Compound 31] | 1.91
CC1(S(C)(=O)=O)CCC(CF)(c2cc(NC(=O)c3cnc(OC(F)F)cn3)ccc2F)N=C1N (stereo not shown) [Compound 32] | 0.398
CC1(S(C)(=O)=O)CCC(CF)(c2cc(NC(=O)c3cnc(OCC(F)(F)F)cn3)ccc2F)N=C1N (stereo not shown) [Compound 39] | 1.38
